The results in this text go back to publication PMC4383725 (Cell reports, 2015).

This experiment has as its target T1, oxysterol-binding protein (OSBP) (Homo sapiens, UniProt P22059).
T1 sequence (P22059 2-807): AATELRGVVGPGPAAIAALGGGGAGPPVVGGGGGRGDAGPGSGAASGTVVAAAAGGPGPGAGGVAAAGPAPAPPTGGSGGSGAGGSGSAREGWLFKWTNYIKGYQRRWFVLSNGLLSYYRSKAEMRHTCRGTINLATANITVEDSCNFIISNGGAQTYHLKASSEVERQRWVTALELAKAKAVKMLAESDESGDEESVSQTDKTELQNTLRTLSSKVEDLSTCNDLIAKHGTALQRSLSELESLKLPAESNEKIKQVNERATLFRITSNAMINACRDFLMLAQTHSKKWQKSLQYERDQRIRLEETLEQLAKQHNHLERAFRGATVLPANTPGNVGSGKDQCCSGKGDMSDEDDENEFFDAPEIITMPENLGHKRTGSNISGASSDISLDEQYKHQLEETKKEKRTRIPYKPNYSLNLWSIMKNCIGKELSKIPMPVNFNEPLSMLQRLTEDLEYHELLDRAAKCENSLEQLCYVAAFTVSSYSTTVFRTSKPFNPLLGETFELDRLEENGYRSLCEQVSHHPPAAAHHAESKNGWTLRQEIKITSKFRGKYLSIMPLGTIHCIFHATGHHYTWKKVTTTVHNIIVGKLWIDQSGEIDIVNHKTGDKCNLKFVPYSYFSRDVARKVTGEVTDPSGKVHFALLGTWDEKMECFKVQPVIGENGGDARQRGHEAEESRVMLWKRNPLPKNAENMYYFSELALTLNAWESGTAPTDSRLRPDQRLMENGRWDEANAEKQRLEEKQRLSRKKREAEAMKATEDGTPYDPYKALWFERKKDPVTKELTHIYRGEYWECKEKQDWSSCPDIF
As to the kind of experiment: MicroScale Thermophoresis with purified GFP-OSBP.

pKd: −log10 of the molar value.

On to `CCC(C)n1ncn(-c2ccc(N3CCN(c4ccc(OCC5COC(Cn6cncn6)(c6ccc(Cl)cc6Cl)O5)cc4)CC3)cc2)c1=O` (stereo not shown) [ITZ, itraconazole], for which the pKd was ~6.37.
